Reference: US20100113415A1, “EPHA4 RTK INHIBITORS FOR TREATMENT OF NEUROLOGICAL AND NEURODEGENERATIVE DISORDERS AND CANCER” (priority 2008, published 2010)
pIC50: −log10 of the molar value.

Assays:
P60c-src = target: T1, P60c-src (Homo sapiens, UniProt P12931); test: Src kinase counterscreen enzymatic assay (TR-FRET); format: biochemical; details: 0.5 μM ATP
T1 construct: purchased Upstate biotechnology, USA
Experimental: Counterscreen assays were developed for the tyrosine kinases src kinase and Jak2 kinase, with a format essentially identical to the EphA4 kinase TR-FRET format. Jak2 (50 ng) (Cell Signaling, USA) was incubated with 0.5 μM of biotinylated FLT3 peptide (Cell Signaling, USA) in presence of 5 μM of ATP (Sigma). P60c-src (10 U/well) (Upstate biotechnology, USA) was incubated with biotinylated Poly(Glu Tyr) peptide (100 nM) in presence of 0.5 μM of ATP. The enzymatic reaction was stopped after 60 min by adding 15 mM EDTA. The detection reaction and energy transfer signal measurements were similar to those previously described. Results were expressed as ratios of the absorbencies 665/615.
Compounds were titrated in duplicate at 11 points concentration starting at 100 μM with a 3 fold increment. Compounds were diluted in DMSO. […] Percentage inhibition for each compound was then calculated based on the value of the 100% inhibition. Concentration-response curves were represented and the concentrations for 50% inhibition (IC50) were calculated.

[1] = target: T2, human form of EphA4 receptor over-expressed in CHO-K1 cells (Homo sapiens, UniProt P54764); test: EphA4 cell-based assay (pGAS-Luc luciferase reporter in EphA4-transfected CHO-K1 cells); details: for pIC50: inflexion point, luciferase, read-out: EphA4 Cell Assay IP; for EphA4 Cell Assay maximum percent inhibition: value in parentheses
T2 construct: expressed in transfected cells; host or cells: CHO-K1
T2 sequence (P54764 20-986): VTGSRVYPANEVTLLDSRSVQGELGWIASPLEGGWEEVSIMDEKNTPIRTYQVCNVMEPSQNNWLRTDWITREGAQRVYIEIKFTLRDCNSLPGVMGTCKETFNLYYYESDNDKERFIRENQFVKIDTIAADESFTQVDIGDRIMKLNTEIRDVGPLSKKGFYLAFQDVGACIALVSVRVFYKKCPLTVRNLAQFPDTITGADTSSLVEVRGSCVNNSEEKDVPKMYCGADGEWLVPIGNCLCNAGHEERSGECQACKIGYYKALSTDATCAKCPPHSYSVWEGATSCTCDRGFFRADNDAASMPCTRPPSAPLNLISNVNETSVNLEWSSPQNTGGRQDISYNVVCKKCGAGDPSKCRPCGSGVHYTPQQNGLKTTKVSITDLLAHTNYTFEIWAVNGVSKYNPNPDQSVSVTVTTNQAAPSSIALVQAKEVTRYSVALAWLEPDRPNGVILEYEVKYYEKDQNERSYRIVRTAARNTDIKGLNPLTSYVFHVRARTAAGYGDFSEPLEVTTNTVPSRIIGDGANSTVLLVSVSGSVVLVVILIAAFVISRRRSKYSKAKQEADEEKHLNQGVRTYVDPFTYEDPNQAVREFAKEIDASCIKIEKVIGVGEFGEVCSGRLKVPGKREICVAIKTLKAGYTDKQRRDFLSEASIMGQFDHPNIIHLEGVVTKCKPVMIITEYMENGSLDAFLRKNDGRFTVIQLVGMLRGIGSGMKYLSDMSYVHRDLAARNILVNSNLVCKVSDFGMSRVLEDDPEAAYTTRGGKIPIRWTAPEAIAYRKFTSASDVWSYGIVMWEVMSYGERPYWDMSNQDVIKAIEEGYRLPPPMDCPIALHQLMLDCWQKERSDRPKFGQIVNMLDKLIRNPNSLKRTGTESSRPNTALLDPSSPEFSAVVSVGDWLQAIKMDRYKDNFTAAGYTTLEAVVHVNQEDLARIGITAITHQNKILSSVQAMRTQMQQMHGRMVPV
Excerpt: A cell-based assay was used to measure the potency of the compounds on the human form of EphA4 receptor over-expressed in Chinese Hamster Ovary cell line, CHO-K1 cells (Merck Collection). The cell assay was based on a novel signaling pathway of EphA4, which involves activation of the tyrosine kinase Jak2 and the transcriptional activator Stat3 (39).
Reagents: The expression constructs of EphA4 were subcloned into the expression vector pCMV6-XL5 (Origene, MD, USA) (clone from Merck Kinase Library). The luciferase construct that was linked to the Stat1-responsive enhancer (pGAS-Luc) was bought from Stratagene (USA). The renilla construct that linked to an empty vector CMV was bought from Promega (USA).
(§1) Transfection and Luciferase Assay: CHO-K1 cells were plated in T-175 cell culture bottle in DMEM medium supplemented with 10% fetal bovine serum, 1 mM sodium pyruvate, 2 mM L-glutamine and 1.5 g/L sodium bicarbonate. When cell reached 70-80% confluence, transfections were performed in T-175 culture flasks, using Lipofectamine 2000™ transfection reagent (Invitrogen) according to the manufacturer's directions. For the luciferase assay CHO-K1 cells were co-transfected the next day with 50 μg of pGAS-Luc, 70 μg of EphA4, and 5 μg of empty vector pRL-CMV, which encoded the Renilla luciferase, and was included in the transfection mix for normalization. Six hours after transfection the cells were trypsinized and plated at 4.105 cells/ml into 96 well Black/Clear Poly-D-Lysine coated plates (Biocoat) that had been pre-spotted with compounds. Cells were lysed the next day using the Reporter Lysis Buffer (Promega), and the luciferase activity was measured using the Dual Luciferase Assay (Promega) following the manufacturer's directions. The Firefly and Renilla luminescences are read consecutively on a Top-Count (Perkin-Elmer). Results are expressed as a ratio of the two luminescence: Firefly Luciferase/Renilla Luciferase. Cell viability was assessed on parallel plates using the Cell Glo Assay (Promega) following the manufacturer's directions. Results are expressed as percent of cell death in comparison with vehicle-treated wells.
Compounds were titrated in duplicate at 10 points concentration starting at 100 μM with a 1.5 fold increment. Concentration-response curves were represented and the concentrations at the inflexion point (IP) were calculated. The maximum effect was given by the maximum percent inhibition calculated from the results of the control wells (containing only DMSO).

CHO-K1 cells = test: Cell viability (Cell Glo Assay) on parallel plates of the EphA4 cell assay; format: cell-based, Chinese Hamster; details: at 100 μM
Experimental: as §1, with “Six hours after transfection the cells were trypsinized and plated at 4.105 cells/ml into 96 well Black/Clear Poly-D-Lysine coated plates (Biocoat) that had been pre-spotted with compounds.” left out

[2] = test system: Primary Rat cortical astrocytes; test: Scratch wound assay, astrocytes; format: cell-based; details: from AUC of % wound confluence; for pIC50: Rattus norvegicus, Astrocyte, inflexion point, read-out: Scratch Assay Astrocytes IP
Experimental: Primary Rat cortical astrocytes were purchased from Lonza (Walkersvelle Inc., MA, USA). Cells were plated in culture flasks at a density of 1.106-3.106 cells/ml, and maintained at 37° C. and 95% CO2/5% O2, in Astrocyte Growth Medium Bulletkit™ (Lonza Walkersville Inc., MA, USA). When astrocyte cultures reached confluence, cells were trypsinized and replated at 6.105 cells/ml onto 24 well ImageLock™ plate (Essen Instruments, MI, USA).
Scratch wound assays are commonly used to assess the effects of drugs and drug candidates on the cellular proliferation and/or migration associated with wound closing. The IncuCyte™ system (Essen Instruments, MI, USA), an automated imaging platform, provides ongoing, real-time images and quantitative data generated throughout the wound-closing process. Cells were maintained in 24 well ImageLock™ (Essen Instruments, MI, USA) at 37° C. and 95% CO2/5% O2, until a confluent monolayer was achieved. A single scratch wound was then created in each well using the Essen Woundmaker™ (Essen Instruments, MI, USA). It induced a mechanical scratch of the cell monolayer using plastic pipette tips (10-20 μl pipette tips, Eppendorff). Dead cells and other debris produced by the scratch were immediately washed with regular growth media. Cells were then treated with pharmacological agents and were placed into the IncuCyte™ at 37° C. and 95% CO2/5% O2, for two to three days. During this time, the wound area within each well was repeatedly imaged at fixed time intervals (every three hours). The IncuCyte™ scratch wound software generates a “wound mask” for each well. An initial wound mask is created for the first image (at time 0) that clearly delineates the border of the wound. A revised mask is generated for each subsequent image to track wound closure. Wound closure can be automatically monitored using the wound confluence (% confluence). Wound confluence can be graphed over time to evaluate the characteristics of wound closing in the presence of pharmacological agents.
The calculation of the area under the curve (AUC) of the % confluence function of the time gave a quantitative measurement of compounds efficacy on the scratch wound closing. Compounds were titrated in quadruplicate at 5 points concentration starting at 20 μM with a two-fold increment. The percentage of inhibition was calculated from the AUCs at each dose in comparison with the AUCs of the control wells (1% DMSO). Concentration-response curves were represented and the concentrations at the inflexion point (IP) were calculated. The maximum effect was given by the maximum percent inhibition.

T1 sequence (P12931 whole entry): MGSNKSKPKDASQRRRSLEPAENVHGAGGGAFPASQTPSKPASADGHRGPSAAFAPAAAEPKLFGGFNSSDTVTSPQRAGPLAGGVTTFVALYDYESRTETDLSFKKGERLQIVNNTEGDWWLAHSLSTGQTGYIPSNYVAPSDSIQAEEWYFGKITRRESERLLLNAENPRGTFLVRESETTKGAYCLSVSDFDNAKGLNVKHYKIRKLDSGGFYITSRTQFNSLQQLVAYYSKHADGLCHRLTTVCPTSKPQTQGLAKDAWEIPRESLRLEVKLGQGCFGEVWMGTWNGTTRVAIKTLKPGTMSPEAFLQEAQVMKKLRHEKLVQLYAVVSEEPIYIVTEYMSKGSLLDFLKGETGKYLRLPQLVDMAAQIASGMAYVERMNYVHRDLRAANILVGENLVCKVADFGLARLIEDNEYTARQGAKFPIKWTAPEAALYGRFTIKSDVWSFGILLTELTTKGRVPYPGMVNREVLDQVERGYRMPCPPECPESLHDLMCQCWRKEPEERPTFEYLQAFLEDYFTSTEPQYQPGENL

SMILES | pIC50 (P60c-src) | pIC50 [1] | EphA4 Cell Assay maximum percent inhibition [1] [%] | Max Toxicity Cell Assay % of cell death (CHO-K1 cells) [% at 100 μM] | pIC50 [2] | Scratch Assay Astrocytes max inhibition in % [2] [%]
CC1CCc2c(-c3ccccc3Cl)nc3[nH]nc(N)c3c2C1 (stereo not drawn) [Example 63] | 5.08 | 5.14 | 55 | 68 | 4.31 | 33
Cc1ccccc1-c1nc2[nH]nc(N)c2c2c1CCC(C)(C)C2 [Example 67] | 6.52 | 5.64 | 46 | 76 | 5.85 | 66
